Measured values reported in BindingDB's records for doi:10.1021/jm020429w (Rensselaer Polytechnic Institute, 2003).

Test: Binding affinity towards Opioid receptor delta 1 from guinea pig brain using [3H]naltrindole as radioligand

SMILES | Ki
C[C@H]1[C@H]2Cc3ccc(O)cc3[C@@]1(C)CCN2C[C@@H]1CCCO1 | 2.5 nM
C[C@@H]1[C@@H]2Cc3ccc(N)cc3[C@]1(C)CCN2CC1CC1 [3-Cyclopropylmethyl-6,11-dimethyl-1,2,3,4,5,6-hexahydro-2,6-methano-benzo[d]azocin-8-ylamine] | 920 nM
CC[C@@]12CCN(CC3CC3)C(C(=O)c3ccc(Nc4ccccc4)cc31)[C@@H]2C [3-Cyclopropylmethyl-6-ethyl-11-methyl-8-phenylamino-3,4,5,6-tetrahydro-2H-2,6-methano-benzo[d]azocin-1-one] | 37 nM
C[C@H]1C2C(=O)c3ccc(O)cc3[C@@]1(C)CCN2CC1CC1 [3-Cyclopropylmethyl-8-hydroxy-6,11-dimethyl-3,4,5,6-tetrahydro-2H-2,6-methano-benzo[d]azocin-1-one] | 20 nM
C[C@H]1[C@H]2Cc3ccc(N)cc3[C@@]1(C)CCN2C[C@@H]1CCCO1 [6,11-Dimethyl-3-(tetrahydro-furan-2-ylmethyl)-1,2,3,4,5,6-hexahydro-2,6-methano-benzo[d]azocin-8-ylamine] | 370 nM
C[C@H]1C2C(=O)c3ccc(N)cc3[C@@]1(C)CCN2CC1CC1 [8-Amino-3-cyclopropylmethyl-6,11-dimethyl-3,4,5,6-tetrahydro-2H-2,6-methano-benzo[d]azocin-1-one] | 29 nM
CC[C@@]12CCN(CC3CC3)C(C(=O)c3ccc(N)cc31)[C@@H]2C [8-Amino-3-cyclopropylmethyl-6-ethyl-11-methyl-3,4,5,6-tetrahydro-2H-2,6-methano-benzo[d]azocin-1-one] | 81 nM
C[C@H]1C2Cc3cc4c(cc3[C@@]1(C)CCN2CC1CC1)[nH]c1ccccc14 [17-cyclopropylmethyl-1,20-dimethyl-(1S,20R)-5,17-diazapentacyclo[14.3.1.02,14.04,12.06,11]icosa-2(14),3,6(11),7,9,12-hexaene] | 170 nM
COc1ccccc1Nc1ccc2c(c1)[C@@]1(C)CCN(CC3CC3)C(C2)[C@@H]1C [(3-Cyclopropylmethyl-6,11-dimethyl-1,2,3,4,5,6-hexahydro-2,6-methano-benzo[d]azocin-8-yl)-(2-methoxy-phenyl)-amine] | 98 nM
C[C@H]1C2Cc3ccc(Nc4ccc(Cl)c(Cl)c4)cc3[C@@]1(C)CCN2CC1CC1 [(3-Cyclopropylmethyl-6,11-dimethyl-1,2,3,4,5,6-hexahydro-2,6-methano-benzo[d]azocin-8-yl)-(3,4-dichloro-phenyl)-amine] | 29 nM
COc1cccc(Nc2ccc3c(c2)[C@@]2(C)CCN(CC4CC4)C(C3)[C@@H]2C)c1 [(3-Cyclopropylmethyl-6,11-dimethyl-1,2,3,4,5,6-hexahydro-2,6-methano-benzo[d]azocin-8-yl)-(3-methoxy-phenyl)-amine] | 13 nM
COc1ccc(CNc2ccc3c(c2)[C@@]2(C)CCN(CC4CC4)C(C3)[C@@H]2C)cc1 [(3-Cyclopropylmethyl-6,11-dimethyl-1,2,3,4,5,6-hexahydro-2,6-methano-benzo[d]azocin-8-yl)-(4-methoxy-benzyl)-amine] | 80 nM
COc1ccc(Nc2ccc3c(c2)[C@@]2(C)CCN(CC4CC4)C(C3)[C@@H]2C)cc1 [(3-Cyclopropylmethyl-6,11-dimethyl-1,2,3,4,5,6-hexahydro-2,6-methano-benzo[d]azocin-8-yl)-(4-methoxy-phenyl)-amine] | 8.3 nM
C[C@H]1C2Cc3ccc(Nc4ccc(C(F)(F)F)cc4)cc3[C@@]1(C)CCN2CC1CC1 [(3-Cyclopropylmethyl-6,11-dimethyl-1,2,3,4,5,6-hexahydro-2,6-methano-benzo[d]azocin-8-yl)-(4-trifluoromethyl-phenyl)-amine] | 180 nM
Cc1ccc(Nc2ccc3c(c2)[C@@]2(C)CCN(CC4CC4)C(C3)[C@@H]2C)cc1 [(3-Cyclopropylmethyl-6,11-dimethyl-1,2,3,4,5,6-hexahydro-2,6-methano-benzo[d]azocin-8-yl)-p-tolyl-amine] | 6.2 nM
C[C@H]1C2Cc3ccc(Nc4ccccn4)cc3[C@@]1(C)CCN2CC1CC1 [(3-Cyclopropylmethyl-6,11-dimethyl-1,2,3,4,5,6-hexahydro-2,6-methano-benzo[d]azocin-8-yl)-pyridin-2-yl-amine] | 11 nM
C[C@H]1C2Cc3ccc(Nc4cccnc4)cc3[C@@]1(C)CCN2CC1CC1 [(3-Cyclopropylmethyl-6,11-dimethyl-1,2,3,4,5,6-hexahydro-2,6-methano-benzo[d]azocin-8-yl)-pyridin-3-yl-amine] | 21 nM
C[C@H]1C2Cc3ccc(Nc4ccncc4)cc3[C@@]1(C)CCN2CC1CC1 [(3-Cyclopropylmethyl-6,11-dimethyl-1,2,3,4,5,6-hexahydro-2,6-methano-benzo[d]azocin-8-yl)-pyridin-4-yl-amine] | 240 nM
C[C@H]1C2Cc3ccc(NCc4ccc(Cl)cc4)cc3[C@@]1(C)CCN2CC1CC1 [(4-Chloro-benzyl)-(3-cyclopropylmethyl-6,11-dimethyl-1,2,3,4,5,6-hexahydro-2,6-methano-benzo[d]azocin-8-yl)-amine] | 100 nM
C[C@H]1C2Cc3ccc(Nc4ccc(Cl)cc4)cc3[C@@]1(C)CCN2CC1CC1 [(4-Chloro-phenyl)-(3-cyclopropylmethyl-6,11-dimethyl-1,2,3,4,5,6-hexahydro-2,6-methano-benzo[d]azocin-8-yl)-amine] | 26 nM
C[C@H]1C2Cc3ccc(Nc4ccc(C(C)(C)C)cc4)cc3[C@@]1(C)CCN2CC1CC1 [(4-tert-Butyl-phenyl)-(3-cyclopropylmethyl-6,11-dimethyl-1,2,3,4,5,6-hexahydro-2,6-methano-benzo[d]azocin-8-yl)-amine] | 61 nM
C[C@H]1C2Cc3ccc(N(C)C)cc3[C@@]1(C)CCN2CC1CC1 [((6S,11R)-3-Cyclopropylmethyl-6,11-dimethyl-1,2,3,4,5,6-hexahydro-2,6-methano-benzo[d]azocin-8-yl)-dimethyl-amine] | 810 nM
C[C@H]1C2Cc3ccc(N=C(c4ccccc4)c4ccccc4)cc3[C@@]1(C)CCN2CC1CC1 [Benzhydrylidene-(3-cyclopropylmethyl-6,11-dimethyl-1,2,3,4,5,6-hexahydro-2,6-methano-benzo[d]azocin-8-yl)-amine] | 220 nM
C[C@H]1C2Cc3ccc(Nc4ccc(N(C)C)cc4)cc3[C@@]1(C)CCN2CC1CC1 [N-(3-Cyclopropylmethyl-6,11-dimethyl-1,2,3,4,5,6-hexahydro-2,6-methano-benzo[d]azocin-8-yl)-N',N'-dimethyl-benzene-1,4-diamine] | 75 nM
C[C@H]1[C@H]2Cc3ccc(Nc4ccccc4)cc3[C@@]1(C)CCN2C[C@@H]1CCCO1 [[6,11-Dimethyl-3-(tetrahydro-furan-2-ylmethyl)-1,2,3,4,5,6-hexahydro-2,6-methano-benzo[d]azocin-8-yl]-phenyl-amine] | 35 nM
